Reference: US6407094B1, “Glutamate receptor antagonists” (Hoffmann-la Roche Inc., priority 1999, dated 2002)

Experiments:
[1] = target: T1, rat mGlu2 receptor (Rattus norvegicus, UniProt P31421); assay: [3H]-LY354740 binding on mGlu2 transfected CHO cell membranes
T1 construct: expressed in transfected cells; host or cells: CHO cells, stably transfected with pcD1mGR2 (pcDNA I-amp), G-418 selected; membranes used
T1 sequence (P31421 19-872): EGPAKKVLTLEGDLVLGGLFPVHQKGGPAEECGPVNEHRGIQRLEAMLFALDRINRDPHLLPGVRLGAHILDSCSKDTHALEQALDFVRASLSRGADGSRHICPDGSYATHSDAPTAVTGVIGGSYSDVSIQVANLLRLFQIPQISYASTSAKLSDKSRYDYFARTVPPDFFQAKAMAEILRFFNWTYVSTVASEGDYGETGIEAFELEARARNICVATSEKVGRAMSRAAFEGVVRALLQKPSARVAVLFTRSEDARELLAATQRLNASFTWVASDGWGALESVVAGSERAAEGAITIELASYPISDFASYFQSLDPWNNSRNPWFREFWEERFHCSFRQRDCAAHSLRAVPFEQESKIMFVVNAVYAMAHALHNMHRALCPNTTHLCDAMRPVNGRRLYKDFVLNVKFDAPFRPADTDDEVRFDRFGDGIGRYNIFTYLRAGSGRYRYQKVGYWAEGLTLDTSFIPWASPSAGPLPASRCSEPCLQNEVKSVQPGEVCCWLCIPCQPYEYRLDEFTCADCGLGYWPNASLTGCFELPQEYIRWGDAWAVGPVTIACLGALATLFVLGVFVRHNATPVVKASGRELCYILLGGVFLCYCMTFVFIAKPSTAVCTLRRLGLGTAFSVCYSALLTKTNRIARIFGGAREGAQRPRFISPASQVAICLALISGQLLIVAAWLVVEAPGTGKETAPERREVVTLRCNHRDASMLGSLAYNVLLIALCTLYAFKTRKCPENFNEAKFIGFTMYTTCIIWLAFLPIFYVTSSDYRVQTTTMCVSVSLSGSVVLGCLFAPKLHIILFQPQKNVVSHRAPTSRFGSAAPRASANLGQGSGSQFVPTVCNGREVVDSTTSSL

Row | Ki [1] [nM] | melting point | Compound
1 | 28 |  | N#Cc1cccc(C2=Nc3cc(Cl)c(C#Cc4ccccc4)cc3NC(=O)C2)c1 [Example 3, 3-(8-Chloro-4-oxo-7-phenylethynyl-4,5-dihydro-3H-benzo[b][1,4]diazepin-2-yl)-benzonitrile]
2 |  | 196 to 197 °C | COCCOc1cc2c(cc1-c1ccc(F)cc1)NC(=O)CC(c1cccc(-n3ccnc3)c1)=N2 [Example 57, 8-(4-Fluoro-phenyl)-4-(3-imidazol-1-yl-phenyl)-7-(2-methoxy-ethoxy)-1,3-dihydro-benzo[b][1,4]diazepin-2-one]
3 |  | 225 °C | O=C1CC(c2cccc(-n3ccnc3)c2)=Nc2cc(OCCO)c(-c3ccc(F)cc3)cc2N1 [Example 58, 8-(4-Fluoro-phenyl)-7-(2-hydroxy-ethoxy)-4-(3-imidazol-1-yl-phenyl)-1,3-dihydro-benzo[b][1,4]diazepin-2-one]
4 |  | 230 °C | O=C1CC(c2cccc(-n3ccnc3)c2)=Nc2cc(N3CCOC3=O)c(-c3ccc(F)cc3)cc2N1 [Example 59, 8-(4-Fluoro-phenyl)-4-(3-imidazol-1-yl-phenyl)-7-(2-oxo-oxazolidin-3-yl)-1,3-dihydro-benzo[b][1,4]diazepin-2-one]
5 |  | 225 °C | COc1cc2c(cc1-c1ccc(F)cc1C)NC(=O)CC(c1cccc(-n3ccnc3)c1)=N2 [Example 60, 8-(4-Fluoro-2-methyl-phenyl)-4-(3-imidazol-1-yl-phenyl)-7-methoxy-1,3-dihydro-benzo[b][1,4]diazepin-2-one]
6 |  | 155 to 158 °C | O=C1CC(c2cccc(-n3ccnc3)c2)=Nc2cc(N3CC[C@@H](O)C3)c(-c3ccc(F)cc3)cc2N1 [Example 63, 8-(4-Fluoro-phenyl)-7-((R)-3-hydroxy-pyrrolidin-1-yl)-4-(3-imidazol-1-yl-phenyl)-1,3-dihydro-benzo[b][1,4]diazepin-2-one]
7 |  | 216 °C (dec.) | COc1cc2c(cc1-c1ccccc1F)NC(=O)CC(c1cccc(-n3ccnc3)c1)=N2 [Example 64, 8-(2-Fluoro-phenyl)-4-(3-imidazol-1-yl-phenyl)-7-methoxy-1,3-dihydro-benzo[b][1,4]diazepin-2-one]
8 |  | > 250 °C | N#Cc1cccc(C2=Nc3cc(O)c(-c4ccc(F)cc4)cc3NC(=O)C2)c1 [Example 65, 3-[7-(4-Fluoro-phenyl)-8-hydroxy-4-oxo-4,5-dihydro-3H-benzo[b][1,4]diazepin-2-yl]-benzonitrile]
9 |  | > 250 °C | N#Cc1cccc(C2=Nc3cc(O)c(-c4ccccc4F)cc3NC(=O)C2)c1 [Example 66, 3-[7-(2-Fluoro-phenyl)-8-hydroxy-4-oxo-4,5-dihydro-3H-benzo[b][1,4]diazepin-2-yl]-benzonitrile]
10 |  | 245 to 247 °C | COc1cc2c(cc1-c1ccccc1F)NC(=O)CC(c1cccc(C#N)c1)=N2 [Example 67, 3-[7-(2-Fluoro-phenyl)-8-methoxy-4-oxo-4,5-dihydro-3H-benzo[b][1,4]diazepin-2-yl]-benzonitrile]
11 |  | 188 °C (dec.) | COc1cc2c(cc1-c1ccccc1F)NC(=O)CC(c1cccc(-n3cnnc3)c1)=N2 [Example 70, 8-(2-Fluoro-phenyl)-7-methoxy-4-(3-[1,2,4]triazol-4-yl-phenyl)-1,3-dihydro-benzo[b][1,4]diazepin-2-one]
12 |  | > 250 °C | COc1cc2c(cc1-c1ccccc1F)NC(=O)CC(c1cc(C#N)ccc1F)=N2 [Example 73, 4-Fluoro-3-[7-(2-fluoro-phenyl)-8-methoxy-4-oxo-4,5-dihydro-3H-benzo[b][1,4]diazepin-2-yl]-benzonitrile]
13 |  | 164 °C | N#Cc1cc(C2=Nc3cc(O)c(-c4ccc(F)cc4)cc3NC(=O)C2)ccn1 [Example 74, 4-[7-(4-Fluoro-phenyl)-8-hydroxy-4-oxo-4,5-dihydro-3H-benzo[b][1,4]diazepin-2-yl]-pyridine-2-carbonitrile]
14 |  | 253 °C | N#Cc1cccc(C2=Nc3cc(N4CCC5(CC4)OCCO5)c(-c4ccccc4F)cc3NC(=O)C2)c1 [Example 76, 3-[8-(1,4-Dioxa-8-aza-spiro[4.5]dec-8-yl)-7-(2-fluoro-phenyl)-4-oxo-4,5-dihydro-3H-benzo[b][1,4]diazepin-2-yl]-benzonitrile]
15 |  | 225 °C | O=C1CC(c2cccc(-n3ccnc3)c2)=Nc2cc(N3CCC4(CC3)OCCO4)c(-c3ccccc3F)cc2N1 [Example 77, 7-(1,4-Dioxa-8-aza-spiro[4.5]dec-8-yl)-8-(2-fluoro-phenyl)-4-(3-imidazol-1-yl-phenyl)-1,3-dihydro-benzo[b][1,4]diazepin-2-one]
16 |  | 230 °C | O=C1CCN(c2cc3c(cc2-c2ccccc2F)NC(=O)CC(c2cccc(-n4ccnc4)c2)=N3)CC1 [Example 78, 8-(2-Fluoro-phenyl)-4-(3-imidazol-1-yl-phenyl)-7-(4-oxo-piperidin-1-yl)-1,3-dihydro-benzo[b][1,4]diazepin-2-one]
17 |  | > 250 °C | N#Cc1cc(C2=Nc3cc(O)c(-c4ccccc4F)cc3NC(=O)C2)ccn1 [Example 80, 4-[7-(2-Fluoro-phenyl)-8-hydroxy-4-oxo-4,5-dihydro-3H-benzo[b][1,4]diazepin-2-yl]-pyridine-2-carbonitrile]
18 |  | 251 °C | COc1cc2c(cc1-c1cc(F)ccc1F)NC(=O)CC(c1cccc(C#N)c1)=N2 [Example 82, 3-[7-(2,5-Difluoro-phenyl)-8-methoxy-4-oxo-4,5-dihydro-3H-benzo[b][1,4]diazepin-2-yl]-benzonitrile]
19 |  | 242 °C | N#Cc1ccsc1C1=CC(=O)Nc2cc(-c3ccccc3F)c(O)cc2N1 [Example 84, 2-[7-(2-Fluoro-phenyl)-8-hydroxy-4-oxo-4,5-dihydro-1H-benzo[b][1,4]diazepin-2yl]-thiophene-3-carbonitrile]
20 |  | > 250 °C | O=C1CC(c2cccc(-n3ccnn3)c2)=Nc2cc(O)c(-c3ccc(F)cc3)cc2N1 [Example 86, 8-(4-Fluoro-phenyl)-7-hydroxy-4-(3-[1,2,3]triazol-1-yl-phenyl)-1,3-dihydro-benzo[b][1,4]diazepin-2-one]
21 |  | 211 to 213 °C | COCCOc1cc2c(cc1-c1ccccc1F)NC(=O)CC(c1cccc(C#N)c1)=N2 [Example 87, 3-[7-(2-Fluoro-phenyl)-8-(2-methoxy-ethoxy)-4-oxo-4,5-dihydro-3H-benzo[b][1,4]diazepin-2-yl]-benzonitrile]
22 |  | 90 to 91 °C | N#Cc1cccc(C2=Nc3cc(CO)c(-c4ccccc4F)cc3NC(=O)C2)c1 [Example 88, 3-[7-(2-Fluoro-phenyl)-8-hydroxymethyl-4-oxo-4,5-dihydro-3H-benzo[b][1,4]diazepin-2-yl]-benzonitrile]
23 |  | 243 °C | O=C1CC(c2cccc(-n3ccnn3)c2)=Nc2cc(O)c(C#Cc3ccc(F)cc3)cc2N1 [Example 92, 8-(4-Fluoro-phenylethynyl)-7-hydroxy-4-(3-[1,2,3]triazol-1-yl-phenyl)-1,3-dihydro-benzo[b][1,4]diazepin-2-one]
24 |  | 227 to 230 °C (dec.) | COCCOc1cc2c(cc1C#Cc1ccccc1)NC(=O)CC(c1cccc(C(N)=O)c1)=N2 [Example 95, 3-[8-(2-Methoxy-ethoxy)-4-oxo-7-phenylethynyl-4,5-dihydro-3H-benzo[b][1,4]diazepin 2-yl]-benzamide]
